Five compounds from ChEMBL document CHEMBL4665747, “Glycosides and Glycoconjugates of the Diterpenoid Isosteviol with a 1,2,3-Triazolyl Moiety: Synthesis and Cytotoxicity Evaluation” (J Nat Prod, 2020) can be followed below.

pIC50: −log10 of the molar value. The source made the active and inactive calls. The calls are words filed in the database; no cut-off is given here.

For experiment [1], the system named is WI-38. As to the kind of experiment: Cytotoxicity against human WI-38 cells assessed as reduction in cell viability after 24 hrs by DAPI staining-based fluorescence assay. As to conditions: WI-38, 24 h.
Experiment [2] relates to MCF7. As to the kind of experiment: Cytotoxicity against human MCF7 cells assessed as reduction in cell viability after 24 hrs by DAPI staining-based fluorescence assay. As to conditions: MCF7, 24 h. The class given is functional.
The nature of experiment [3]: Cytotoxicity against human Chang liver cells assessed as reduction in cell viability after 24 hrs by DAPI staining-based fluorescence assay.
Experiment [4] concerns M-HeLa. The experiment can be described thus: Cytotoxicity against human HelaM cells assessed as reduction in cell viability after 24 hrs by DAPI staining-based fluorescence assay. The class given is functional.
Experiment [5] is described as follows: Selectivity index, ratio of IC50 for human chang liver cells to IC50 for human HelaM cells.
Experiment [6] deals with M-HeLa. As to the kind of experiment: Induction of apoptosis in human HelaM cells assessed as necrotic cells at 25 uM after 24 hrs by V-FITC/propidium iodide staining-based flow cytometric analysis (reference value: 4.55 %). The class given is functional.
For experiment [7], the system named is M-HeLa. As to the kind of experiment: Induction of apoptosis in human HelaM cells assessed as increase in JNK level at 10 uM incubated for 24 hrs. The class given is functional, cell-based.
For experiment [8], the system named is M-HeLa. The experiment can be described thus: Induction of apoptosis in human HelaM cells assessed as viable cells at 25 uM after 24 hrs by V-FITC/propidium iodide staining-based flow cytometric analysis (reference value: 93.33 %). It is filed as functional. As to conditions: read-out: Activity.
Experiment [9] deals with M-HeLa. The experiment can be described thus: Induction of mitochondrial membrane potential loss in human HelaM cells assessed as cell population with intact mitochondrial membrane potential at 25 uM by JC-10 staining-based flow cytometric analysis (reference value: 77.48 %). The class given is functional.
For experiment [10], the system named is M-HeLa. As to the kind of experiment: Induction of apoptosis in human HelaM cells assessed as increase in caspase-9 level at 10 uM incubated for 24 hrs. It is filed as functional, cell-based.
Experiment [11] has as its system M-HeLa. As to the kind of experiment: Induction of apoptosis in human HelaM cells assessed as viable cells at 10 uM after 24 hrs by V-FITC/propidium iodide staining-based flow cytometric analysis (reference value: 93.33 %). The class given is functional. As to conditions: read-out: Activity.
Experiment [12] has as its system M-HeLa. As to the kind of experiment: Induction of mitochondrial membrane potential loss in human HelaM cells assessed as cell population with mitochondrial membrane potential collapse at 25 uM by JC-10 staining-based flow cytometric analysis (reference value: 22.17 %). The class given is functional.
Experiment [13] concerns M-HeLa. The experiment can be described thus: Induction of apoptosis in human HelaM cells assessed as increase in p53 level at 10 uM incubated for 24 hrs. The class given is functional, cell-based.
In experiment [14] the test system is M-HeLa. The experiment can be described thus: Induction of apoptosis in human HelaM cells assessed as increase in Akt level at 10 uM incubated for 24 hrs. The class given is functional, cell-based.
Experiment [15] has as its system M-HeLa. The experiment can be described thus: Induction of mitochondrial membrane potential loss in human HelaM cells assessed as cell population with intact mitochondrial membrane potential at 10 uM by JC-10 staining-based flow cytometric analysis (reference value: 77.48 %). It is filed as functional.
For experiment [16], the system named is M-HeLa. The experiment can be described thus: Induction of apoptosis in human HelaM cells assessed as early apoptotic cells at 10 uM after 24 hrs by V-FITC/propidium iodide staining-based flow cytometric analysis (reference value: 1.5 %). The class given is functional.
Experiment [17] relates to M-HeLa. The experiment can be described thus: Induction of apoptosis in human HelaM cells assessed as necrotic cells at 10 uM after 24 hrs by V-FITC/propidium iodide staining-based flow cytometric analysis (reference value: 4.55 %). The class given is functional.
The test system of experiment [18] is M-HeLa. The experiment can be described thus: Induction of apoptosis in human HelaM cells assessed as increase in Bcl2 level at 10 uM incubated for 24 hrs. The class given is functional, cell-based.
Experiment [19] has as its system M-HeLa. As to the kind of experiment: Induction of apoptosis in human HelaM cells assessed as late apoptotic cells at 25 uM after 24 hrs by V-FITC/propidium iodide staining-based flow cytometric analysis (reference value: 0.62 %). The class given is functional.
In experiment [20] the test system is M-HeLa. The experiment can be described thus: Induction of mitochondrial membrane potential loss in human HelaM cells assessed as cell population with mitochondrial membrane potential collapse at 10 uM by JC-10 staining-based flow cytometric analysis (reference value: 22.17 %). The class given is functional.
For experiment [21], the system named is M-HeLa. The experiment can be described thus: Induction of apoptosis in human HelaM cells assessed as early apoptotic cells at 25 uM after 24 hrs by V-FITC/propidium iodide staining-based flow cytometric analysis (reference value: 1.5 %). The class given is functional.
For experiment [22], the system named is M-HeLa. As to the kind of experiment: Induction of apoptosis in human HelaM cells assessed as increase in caspase-8 level at 10 uM incubated for 24 hrs. It is filed as functional, cell-based.
Experiment [23] has as its system M-HeLa. As to the kind of experiment: Induction of apoptosis in human HelaM cells assessed as late apoptotic cells at 10 uM after 24 hrs by V-FITC/propidium iodide staining-based flow cytometric analysis (reference value: 0.62 %). The class given is functional.
Experiment [24] deals with M-HeLa. The experiment can be described thus: Induction of apoptosis in human HelaM cells assessed as increase in Bad level at 10 uM incubated for 24 hrs. It is filed as functional, cell-based.

Consider `CC(=O)OC[C@H]1O[C@@H](n2cc(COC(=O)[C@]3(C)CCC[C@@]4(C)[C@@H]5CC[C@@]6(C)C[C@]5(CC[C@@H]43)CC6=O)nn2)[C@H](OC(C)=O)[C@@H](OC(C)=O)[C@@H]1OC(C)=O`, for which the negative-log IC50 (pIC50) in experiment [1] is 4.44; in [2], less than 5.00; in experiment [3] it was 4.17; in experiment [4] it was 5.10. Moreover, in [5], the “Ratio IC50” value was determined as 8.5.

For `CC(=O)OC[C@H]1O[C@@H](n2cc(COC(=O)[C@]3(C)CCC[C@@]4(C)[C@@H]5CC[C@@]6(C)C[C@]5(CC[C@@H]43)CC6=O)nn2)[C@H](OC(C)=O)[C@@H](OC(C)=O)[C@H]1OC(C)=O`, the Activity in experiment [6] came to 1.26%; in [9], 15.35%; in experiment [12], 84.65%; in experiment [15] it was 59.16%; in experiment [16] it was 7.95%; in [17] it was 0.91%. Besides, the Activity in experiment [19] is given as 11.5%; in experiment [20], 40.74%; in experiment [21], 9.53%; in experiment [23] it was 9.09%. The pIC50 in [1] is 4.16; in experiment [2], less than 5.00; in experiment [3], less than 4.00; in [4], 5.74. Further, the outcome in experiment [7], in experiment [10], in experiment [13], in experiment [14], in experiment [18] and in experiment [22] was Active. For the same compound, in experiment [24], the result was Active. The viability at 25 µM in [8] is 77.7%. In addition, in [11], the viability at 10 µM is 82%. Also, the “Ratio IC50” value in [5] was greater than 56.

Regarding `CC(=O)O[C@@H]1[C@H](OC(C)=O)[C@H](OC(C)=O)CO[C@H]1n1cc(COC(=O)[C@]2(C)CCC[C@@]3(C)[C@@H]4CC[C@@]5(C)C[C@]4(CC[C@@H]32)CC5=O)nn1`, the Activity in experiment [6] amounted to 0.66%; in [9], 13.46%; in experiment [12], 86.44%; in [15], 59.62%; in [16], 9.53%; in experiment [17], 0.34%. Also, the Activity came to 11.59% in experiment [19], 40.23% in experiment [20], 8.57% in experiment [21] and 8.21% in experiment [23]. For the same compound, the pIC50 in [1] was 4.40; in experiment [2], less than 5.00; in experiment [3], less than 4.00; in experiment [4] it was 5.77. The viability at 25 µM in experiment [8] amounted to 79.2%. Besides, the viability at 10 µM in [11] stood at 81.9%. Further, in experiment [5], the “Ratio IC50” value was greater than 59.

As to `COc1cccc2c1C(=O)c1c(O)c3c(c(O)c1C2=O)C[C@@](O)(C(=O)CO)C[C@@H]3O[C@H]1C[C@H](N)[C@H](O)[C@H](C)O1` [DOXORUBICIN], in experiment [3], the pIC50 is 5.52.

Consider `CC(=O)OC[C@H]1O[C@@H](n2cc(COC(=O)[C@]3(C)CCC[C@@]4(C)[C@@H]5CC[C@@]6(C)C[C@]5(CC[C@@H]43)CC6=O)nn2)[C@H](OC(C)=O)[C@@H]1OC(C)=O`, for which the Activity in experiment [6] turned out to be 0%; in experiment [9] it was 9.86%; in experiment [12], 90.09%; in [15] it was 55.17%; in experiment [16], 11.71%; in experiment [17], 0.03%. Besides, the Activity in [19] turned out to be 23.66%; in experiment [20], 44.73%; in [21] it was 22.44%; in experiment [23] it was 20.94%. Further, the negative logarithm of the IC50 (pIC50) was less than 4.00 in experiment [1], less than 5.00 in experiment [2], less than 4.00 in experiment [3] and 5.72 in experiment [4]. Moreover, the viability at 25 µM in experiment [8] stood at 53.9%. For the same compound, the viability at 10 µM in experiment [11] was 67.3%. In addition, the “Ratio IC50” value in experiment [5] is reported as greater than 53.
